# Reference: US20240246937A1 (MERCK SHARP & DOHME LLC, priority 2021, published 2024)
# Target: recombinant IL4I1 (Homo sapiens (Human), UniProt Q96RQ9)
# Assay: IL4I1 Enzymatic Assay (Amplex Red/HRP coupled fluorescence detection of H2O2)
# Assay type: biochemical
# Conditions: 240 min; recombinant IL4I1, four-hour pre-incubation with compound
# Procedure, shortened: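 Recombinant human IL4I1 (1 nM final) pre-incubated 4 h with compound at ambient temperature in 50 mM Hepes pH 7.0, 0.005% Tween20. Started with 1 mM each Phe/Tyr/Trp plus Amplex Red/HRP; H2O2-derived resorufin fluorescence read after 120 min; EC50 from ten-point 1:3 titration, four-parameter fit.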
# Sequence of recombinant IL4I1 (Q96RQ9 22-567): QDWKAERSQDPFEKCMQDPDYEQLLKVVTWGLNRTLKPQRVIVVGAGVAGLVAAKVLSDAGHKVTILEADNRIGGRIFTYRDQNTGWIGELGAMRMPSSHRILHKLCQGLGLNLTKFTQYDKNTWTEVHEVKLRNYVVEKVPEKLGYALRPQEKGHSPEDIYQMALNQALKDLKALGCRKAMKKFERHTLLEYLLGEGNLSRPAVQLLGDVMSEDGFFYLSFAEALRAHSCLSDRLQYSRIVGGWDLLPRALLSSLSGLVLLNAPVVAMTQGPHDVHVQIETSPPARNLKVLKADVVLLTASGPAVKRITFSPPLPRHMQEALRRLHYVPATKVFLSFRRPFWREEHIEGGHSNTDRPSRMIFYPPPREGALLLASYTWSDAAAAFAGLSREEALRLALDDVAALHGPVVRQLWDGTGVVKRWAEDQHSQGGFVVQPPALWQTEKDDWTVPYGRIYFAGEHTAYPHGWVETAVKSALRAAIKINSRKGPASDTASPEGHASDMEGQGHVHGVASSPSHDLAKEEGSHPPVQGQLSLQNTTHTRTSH
row,SMILES,EC50 [nM]
1,"O=C1C(=O)N(c2ccccn2)CCN1Cc1ccc(-c2ccccc2)nn1 [Example 433, 1-((6-phenylpyridazin-3-yl)methyl)-4-(pyridin-2-yl)piperazine-2,3-dione]",37
2,"O=C1C(=O)N(C2CC(O)C2)CCN1Cc1ccc(-c2ccccc2F)nn1 (centres unmarked) [Example 434, 1-((6-(2-fluorophenyl)pyridazin-3-yl)methyl)-4-(3-hydroxycyclobutyl)piperazine-2,3-dione]",71
3,"O=C1C(=O)N(C23CC(C2)C3)CCN1Cc1cn(-c2ccccc2)nn1 [Example 439, 1-(bicyclo[1.1.1]pentan-1-yl)-4-((1-phenyl-1H-1,2,3-triazol-4-yl)methyl)piperazine-2,3-dione]",9

# More lines, in order of falling EC50, values ahead:
row,EC50 [nM],SMILES
1,20,"N#Cc1ccccc1-c1nnc(CN2CCN(C34CC(C3)C4)C(=O)C2=O)s1 [Example 436, 2-(5-((4-(bicyclo[1.1.1]pentan-1-yl)-2,3-dioxopiperazin-1-yl)methyl)-1,3,4-thiadiazol-2-yl)benzonitrile]"
2,17,"O=C1C(=O)N(C2CCC2)CCN1Cc1noc(-c2ccccn2)c1Br [Example 432, 1-((4-bromo-5-(pyridin-2-yl)isoxazol-3-yl)methyl)-4-cyclobutylpiperazine-2,3-dione]"
